In brackets after ≈: the same amount, converted by molar mass.

A short description of series [1]: Ophthalmic formulations based on in situ salt formation technology: composition and state (Example 8). The series is classed as physicochemical. The following applies: pH ~7. The source says:
(§1) In the following ophthalmic formulation preparation examples, "solution" refers to a clear, transparent liquid without visible insoluble matter. "Near-clear solution" refers to a liquid that appears close to a solution upon visual observation but may contain a small amount of insoluble particles or have a slightly opaque color. "Suspension" refers to a liquid that is visibly turbid or opaque. "Gel" refers to a completely or partially gel-like solid.
Example 8: Ophthalmic Formulation Based on In Situ Salt Formation Technology
Therefore, by preparing ophthalmic formulation compositions based on in situ salt formation technology, the solubility of the compounds can be further improved.
According to the formulation composition shown in the table below, weigh the compound powder, add 50% of the total volume (v/v) of a 30% (w/v) aqueous solution of hydroxypropyl-β-cyclodextrin (containing surfactant), and disperse by sonication; next, add an appropriate volume of pH regulator and sonicate until clear; then, add an equal volume of buffer containing solubilizer, viscosity modifier, etc., for dilution, and immediately vortex to mix; finally, add an appropriate volume of alkali regulator to adjust the solution pH to approximately 7, to prepare an eye drop formulation.
Using the in situ salt formation method, the compound is first dispersed in a solution containing Hydroxypropyl-β-cyclodextrin, then different acids are added to adjust the pH to 3-5, allowing the compound to fully or nearly fully dissolve, followed by adding the remaining components and adjusting the pH to approximately 7. […] Based on the visual dissolution effect after acid addition, methanesulfonic acid, acetic acid, and lactic acid were preliminarily selected as pH regulators. The preliminarily selected acids were used in subsequent tests with higher compound concentrations. Table 18 Formulation Composition and State

The nature of series [2]: Thermodynamic solubility test. The series is classed as physicochemical. The following applies: buffer solution, aqueous buffer, thermodynamic from solid; thermodynamic solubility, room temperature, 8 hours shaking; buffers pH 2.0, 6.5, 7.4 used, pH of the tabulated value not given. The procedure, abridged: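 Samples sonicated 10 min, shaken 8 h at room temperature, re-sonicated and centrifuged at 13000 rpm for 15 min. Supernatant recentrifuged and analysed by LC-MS, with concentrations quantified against a 3–5 point calibration curve.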

Series [3] has as its system melanin. Kind of series: Compound binding to melanin. Type of series: in vitro ADME. The following applies: cuttlefish (Sepia officinalis), melanin suspension (1 mg/mL), percentage of free drug (not bound to melanin), 2 µM compound, melanin 1 mg/mL in PBS pH 7.4, 37°C. In short, it runs like this:
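Compound at 2 µM final incubated with 1 mg/mL Sepia melanin in PBS pH 7.4, 37°C, 2 hours with shaking; blank in PBS with 0.1% BSA. Supernatant concentration by LC-MS/MS. Fb = 100 − (Ctest/Ccontrol) × 100%.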

The target in series [4] is T1, EGFR (Homo sapiens, UniProt P00533).
T1 construct: purchased Carna 08-115
T1 sequence (P00533 25-1210): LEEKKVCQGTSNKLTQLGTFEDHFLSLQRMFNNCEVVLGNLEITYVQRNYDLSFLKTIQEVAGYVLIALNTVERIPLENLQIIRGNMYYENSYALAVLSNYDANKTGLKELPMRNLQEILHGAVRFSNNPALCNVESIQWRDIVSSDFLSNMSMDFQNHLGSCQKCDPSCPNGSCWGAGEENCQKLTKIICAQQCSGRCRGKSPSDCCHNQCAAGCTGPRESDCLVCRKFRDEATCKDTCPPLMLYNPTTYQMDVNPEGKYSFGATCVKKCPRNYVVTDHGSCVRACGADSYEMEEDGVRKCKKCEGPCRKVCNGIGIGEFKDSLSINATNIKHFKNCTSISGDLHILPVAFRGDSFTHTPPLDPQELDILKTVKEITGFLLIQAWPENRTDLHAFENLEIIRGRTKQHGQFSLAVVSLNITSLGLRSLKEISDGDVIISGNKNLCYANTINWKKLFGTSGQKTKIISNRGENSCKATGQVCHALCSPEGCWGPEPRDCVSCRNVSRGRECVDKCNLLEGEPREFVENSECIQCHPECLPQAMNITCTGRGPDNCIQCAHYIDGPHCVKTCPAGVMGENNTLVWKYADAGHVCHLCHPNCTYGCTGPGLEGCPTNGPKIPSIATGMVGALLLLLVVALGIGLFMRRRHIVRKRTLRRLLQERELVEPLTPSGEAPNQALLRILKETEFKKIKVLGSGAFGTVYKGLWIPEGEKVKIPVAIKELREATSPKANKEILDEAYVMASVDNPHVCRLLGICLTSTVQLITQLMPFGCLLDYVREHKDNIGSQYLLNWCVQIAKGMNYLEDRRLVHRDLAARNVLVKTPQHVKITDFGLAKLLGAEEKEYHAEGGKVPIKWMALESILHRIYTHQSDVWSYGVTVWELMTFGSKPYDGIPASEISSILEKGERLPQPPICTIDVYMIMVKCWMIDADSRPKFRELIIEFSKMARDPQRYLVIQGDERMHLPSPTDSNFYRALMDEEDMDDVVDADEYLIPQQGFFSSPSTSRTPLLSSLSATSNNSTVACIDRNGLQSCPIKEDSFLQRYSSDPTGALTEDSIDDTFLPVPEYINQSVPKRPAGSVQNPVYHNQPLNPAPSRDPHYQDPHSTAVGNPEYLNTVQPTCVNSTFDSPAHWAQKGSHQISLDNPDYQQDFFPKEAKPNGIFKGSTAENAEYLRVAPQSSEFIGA
Nature of the series: Kinase inhibitory activity, Mobility Shift Assay (EGFR). The series is classed as biochemical. As to the method:
Assay for Inhibitory Activity of Compounds Against VEGFR and EGFR Kinases
This assay directly monitors the inhibitory activity of compounds on kinase phosphorylation by measuring non-phosphorylated and phosphorylated substrates in the kinase reaction using Mobility Shift Assays/IMAP™ analysis. Table 2. Reagents and Instruments
Kinase and DTT were added to 1X kinase buffer to form a 2.5X kinase solution; 10 µL of the 2.5X kinase solution was transferred to a 384-well reaction plate, and 1X kinase buffer was added to the negative control wells. The plate was incubated at room temperature for 10 minutes; FAM-labeled peptide, MgCl2, ATP, and other reagents were added to 1X kinase buffer to form a 2.5X substrate solution; 10 µL of the above 2.5X substrate solution was transferred to the 384-well reaction plate; the plate was incubated at 28°C for varying times, and then 25 µL of stop solution was added to the 384-well reaction plate to terminate the reaction. Conversion rate data were read on a CaliperEZ Reader II. […] IC50 values were fitted using XLFit excel add-in version 5.4.0.8. Y = Bottom + (Top−Bottom)/(1 + […]) [formula]
X is the log value of compound concentration, Y is the inhibition rate (% inhibition).

Series [5] can be described thus: Ophthalmic formulations based on polyethylene glycol series vehicles: composition and state (Example 7). The series is classed as physicochemical. The following applies: Table 16: 2 mg/mL; Polyethylene Glycol 400 5, Poloxamer 188 1, Hydroxypropyl-β-cyclodextrin 6, Gellan Gum Gelrite 0.15, Tris-HCl Buffer (pH 6.8) 25mM.
Text: as §1
Example 7: Ophthalmic Formulations Based on Polyethylene Glycol Series Vehicles
According to the formulation composition shown in the tables below, weigh the compound powder, add it to polyethylene glycol 400, and sonicate until dissolved or nearly dissolved (heat to 50°C if necessary). Add this to a Tris-HCl buffer solution containing hydroxypropyl-β-cyclodextrin, poloxamer 188, and gellan gum (or other viscosity modifier), vortex to mix, and prepare into an eye drop formulation.

`O=C(NC1CC1)c1ccccc1Sc1ccc2c(/C=C/c3cc(OCCN4CCCC4)ccn3)n[nH]c2c1` [Compound I-110, N-cyclopropyl-2-({3-[(E)-2-{4-[2-(pyrrolidin-1-yl)ethoxy]pyridin-2-yl}ethenyl]-1H-indazol-6-yl}sulfanyl)benzamide]: the “State Description” value in series [1] (Table 20, Compound 10 mg/ml, 1M Methanesulfonic Acid 2%, Polyoxyethylene castor oil EL 1%, 0.5M Tris 2%) is “near-clear solution”; in series [1] (Table 20, Compound 20 mg/ml, 1M Methanesulfonic Acid 4%, Polyoxyethylene castor oil EL 1%, 0.5M Tris 2%) it was “near-clear solution”.
For the molecule `CCNC(=O)c1cc(F)ccc1Sc1ccc2c(/C=C/c3cnn(CCCN4CCCC4)c3)n[nH]c2c1` [Compound I-104, N-ethyl-5-fluoro-2-({3-[(E)-2-{1-[3-(pyrrolidin-1-yl)propyl]-1H-pyrazol-4-yl}ethenyl]-1H-indazol-6-yl}sulfanyl)benzamide], in series [2], the concentration in solution (solubility at 8 h) came to 2180 µg/mL (≈ 4200 µM). Further, in series [3], the fraction unbound (as a rule, free concentration divided by total concentration) at 2 h, 2 µM is more than 0.05. The IC50 (usually the concentration needed to halve the response being measured) in series [4] was more than 60 µM. In series [5], the “Osmolality (mOsm/kg)” value is on record as approximately 300 mOsm/kg, the “State Description: pH” value was approximately 7 and the “State Description: state” value was “solution”.
`O=C(NC1CC1)c1cccc(F)c1Sc1ccc2c(/C=C/c3ccc(CN4CCCC4)cn3)n[nH]c2c1` [Compound I-67, N-cyclopropyl-3-fluoro-2-({3-[(E)-2-{5-[(pyrrolidin-1-yl)methyl]pyridin-2-yl}ethenyl]-1H-indazol-6-yl}thio)benzamide]: the concentration in solution in series [2] (solubility at 8 h) came to 118 µg/mL (≈ 230 µM). In addition, the “State Description” value in series [1] (Table 19, Compound 5 mg/ml, 1M Benzenesulfonic Acid 1%, no Polyoxyethylene castor oil EL, no alkali added) is “solution”; in series [1] (Table 19, Compound 5 mg/ml, 1M Methanesulfonic Acid 1%, Polyoxyethylene castor oil EL 1%, 0.5M Tris 0.5%), “solution”; in series [1] (Table 19, Compound 5 mg/ml, 1M Methanesulfonic Acid 1%, no Polyoxyethylene castor oil EL, 0.5M Tris 0.5%), “near-clear solution”; in series [1] (Table 19, Compound 10 mg/ml, 1M Acetic Acid 2%, no Polyoxyethylene castor oil EL, 0.5M Tris 1%) it was “solution”; in series [1] (Table 19, Compound 10 mg/ml, 1M Lactic Acid 2%, no Polyoxyethylene castor oil EL, 0.5M Tris 1%) it was “solution”; in series [1] (Table 19, Compound 20 mg/ml, 1M Methanesulfonic Acid 4%, Polyoxyethylene castor oil EL 1%, 0.5M Tris 1.5%), “near-clear solution”. This molecule showed a fraction unbound at 2 h, 2 µM in series [3] of more than 0.05. Besides, the “State Description: pH” value in series [5] was approximately 7. Also, the “State Description: state” value in series [5] is listed as “solution”.

The values above are taken from patent EP4781984A1 (Beyang Therapeutics Co., Ltd., priority 2023, dated 2025).
